Laboratory results as given in patent US20220153741A1, “HETEROCYCLIC COMPOUNDS AS INHIBITORS OF KRAS G12C” (Guangdong Newopp Biopharmaceuticals Co., Ltd., priority 2019, published 2022).

Experiments:
[1] = tested on: NCI-H358 (H358, KRAS G12C) cancer cell line; assay: 3D proliferation assay, NCI-H358 (CellTiter-Glo); type: cell-based; settings: 96-well spheroid plate, 4 days
Procedure: (§1) 3D proliferation assay: NCI-H358 (H358, KRAS G12C) and LS513 (KRAS G12D) cancer cell lines were obtained from ATCC (American Type Culture Collection, VA). Cells were plated in 96-well spheroid plate (CORNING INC, NY)) in RPMI-1640 with 10% FBS. Compounds (11-point dilutions) and DMSO were added to the wells and incubated with cells for 4 days at 37° C. Cell viability was then determined by CellTiter-Glo (Promega, WI). IC50 values of compounds were determined as the concentration of 50% inhibition of cell viability compared to DMSO treated cells (A: IC50<0.1 μM; B: IC50 between 0.1 μM and 1 μM; C: IC50 between 1 μM and 10 μM; D: >10 μM; ND: not determined).

[2] = tested on: LS513 (KRAS G12D) cancer cell line; assay: 3D proliferation assay, LS513 (CellTiter-Glo); type: cell-based; settings: 96-well spheroid plate, 4 days
Procedure: as §1

`C=C(F)C(=O)N1CCN(c2nc(=O)n3c4nc(c(F)cc24)-c2c(F)cccc2NCCCc2ccnc(C(C)C)c2-3)[C@@H](C)C1` [Example 11, (S)-2^6,3^6-difluoro-2^4-(4-(2-fluoroacryloyl)-2-methylpiperazin-1-yl)-1^2-isopropyl-2^1,2^2-dihydro-4-aza-2(1,7)-pyrido[2,3-d]pyrimidina-1(3,4)-pyridina-3(1,2)-benzenacycloheptaphan-2^2-one] gave an IC50 ([1]; Homo sapiens, NCI-H358, 96 h) of 0.1 to 1 µM and an IC50 ([2]; Homo sapiens, LS-513, 96 h) of over 10 µM.

With `C=CC(=O)N1CCN(c2nc(=O)n3c4nc(c(F)cc24)-c2c(F)cccc2NC(=O)CCNc2cccc(C(C)C)c2-3)[C@@H](C)C1` [Example 21, (S)-2^4-(4-acryloyl-2-methylpiperazin-1-yl)-2^6,3^6-difluoro-1^6-isopropyl-2^1,2^2-dihydro-4,8-diaza-2(1,7)-pyrido[2,3-d]pyrimidina-1,3(1,2)-dibenzenacyclooctaphane-2^2,5-dione] the IC50 ([1]; Homo sapiens, NCI-H358, 96 h) was under 0.1 µM and the IC50 ([2]; Homo sapiens, LS-513, 96 h) was over 10 µM.

With `C=CC(=O)N1CCN(c2nc(=O)n3c4nc(c(F)cc24)-c2c(F)cccc2N(C)C(=O)NCCc2ccnc(C(C)C)c2-3)[C@@H](C)C1` [Example 16, (S)-2^4-(4-acryloyl-2-methylpiperazin-1-yl)-2^6,3^6-difluoro-1^2-isopropyl-4-methyl-2^1,2^2-dihydro-4,6-diaza-2(1,7)-pyrido[2,3-d]pyrimidina-1(3,4)-pyridina-3(1,2)-benzenacyclooctaphane-2^2,5-dione] the IC50 ([1]; Homo sapiens, NCI-H358, 96 h) was 1 to 10 µM.

Work on `C=CC(=O)N1C[C@H](C)N(c2nc(=O)n3c4nc(c(F)cc24)-c2c(F)cccc2NC(=O)CNc2cccc(C(C)C)c2-3)C[C@H]1C` [Example 26, 2^4-((2S,5R)-4-acryloyl-2,5-dimethylpiperazin-1-yl)-2^6,3^6-difluoro-1^6-isopropyl-2^1,2^2-dihydro-4,7-diaza-2(1,7)-pyrido[2,3-d]pyrimidina-1,3(1,2)-dibenzenacycloheptaphane-2^2,5-dione] yielded an IC50 ([1]; Homo sapiens, NCI-H358, 96 h) of under 0.1 µM and an IC50 ([2]; Homo sapiens, LS-513, 96 h) of over 10 µM.

`C=CC(=O)N1CCN(c2nc(=O)n3c4nc(c(F)cc24)-c2c(F)cccc2N(C(=O)N(C)C)CCCc2ccnc(C(C)C)c2-3)[C@@H](C)C1` [Example 13, (S)-2^4-(4-acryloyl-2-methylpiperazin-1-yl)-2^6,3^6-difluoro-1^2-isopropyl-N,N-dimethyl-2^2-oxo-2^1,2^2-dihydro-4-aza-2(1,7)-pyrido[2,3-d]pyrimidina-1(3,4)-pyridina-3(1,2)-benzenacycloheptaphane-4-carboxamide] gave an IC50 ([1]; Homo sapiens, NCI-H358, 96 h) of 0.1 to 1 µM.

`C=CC(=O)N1CCN(c2nc(=O)n3c4nc(c(F)cc24)-c2c(F)cccc2NCCCc2ccnc(C(C)C)c2-3)[C@@H](C)C1` [Example 2, (S)-2^4-(4-acryloyl-2-methylpiperazin-1-yl)-2^6,3^6-difluoro-1^2-isopropyl-2^1,2^2-dihydro-4-aza-2(1,7)-pyrido[2,3-d]pyrimidina-1(3,4)-pyridina-3(1,2)-benzenacycloheptaphan-2^2-one] was tested, and the IC50 ([1]; Homo sapiens, NCI-H358, 96 h) was under 0.1 µM and the IC50 ([2]; Homo sapiens, LS-513, 96 h) was over 10 µM.

`C=C(F)C(=O)N1C[C@H](C)N(c2nc(=O)n3c4nc(c(F)cc24)-c2c(F)cccc2NCCCc2ccnc(C(C)C)c2-3)C[C@H]1C` (single isomer, unassigned) [Example 6A] showed an IC50 [1] of over 10 µM.

Work on `C=CC(=O)N1C[C@H](C)N(c2nc(=O)n3c4nc(c(F)cc24)-c2c(F)cccc2NC(=O)CCNc2cccc(C(C)C)c2-3)C[C@H]1C` [Example 24A, 2^4-((2S,5R)-4-acryloyl-2,5-dimethylpiperazin-1-yl)-2^6,3^6-difluoro-1^6-isopropyl-2^1,2^2-dihydro-4,8-diaza-2(1,7)-pyrido[2,3-d]pyrimidina-1,3(1,2)-dibenzenacyclooctaphane-2^2,5-dione] yielded an IC50 ([1]; Homo sapiens, NCI-H358, 96 h) of under 0.1 µM and an IC50 ([2]; Homo sapiens, LS-513, 96 h) of over 10 µM.

With `C=CC(=O)N1C[C@H](C)N(c2nc(=O)n3c4nc(c(F)cc24)-c2c(F)cccc2NCCCNc2cccc(C(C)C)c2-3)C[C@H]1C` (single isomer, unassigned) [Example 23B] the IC50 [1] was 0.1 to 1 µM and the IC50 [2] was 1 to 10 µM.

Compound `C=CC(=O)N1CCN(c2nc(=O)n3c4nc(c(F)cc24)-c2c(F)cccc2NC(=O)NCCc2ccnc(C(C)C)c2-3)[C@@H](C)C1` [Example 5, (S)-2^4-(4-acryloyl-2-methylpiperazin-1-yl)-2^6,3^6-difluoro-1^2-isopropyl-2^1,2^2-dihydro-4,6-diaza-2(1,7)-pyrido[2,3-d]pyrimidina-1(3,4)-pyridina-3(1,2)-benzenacyclooctaphane-2^2,5-dione] has an IC50 ([1]; Homo sapiens, NCI-H358, 96 h) of 0.1 to 1 µM.

With `C=CC(=O)N1CCN(c2nc(=O)n3c4nc(c(F)cc24)-c2c(F)cccc2NC(=O)CCc2cccc(C(C)C)c2-3)[C@@H](C)C1` [Example 18, (S)-2^4-(4-acryloyl-2-methylpiperazin-1-yl)-2^6,3^6-difluoro-1^6-isopropyl-2^1,2^2-dihydro-4-aza-2(1,7)-pyrido[2,3-d]pyrimidina-1,3(1,2)-dibenzenacycloheptaphane-2^2,5-dione] the IC50 ([1]; Homo sapiens, NCI-H358, 96 h) was 0.1 to 1 µM and the IC50 ([2]; Homo sapiens, LS-513, 96 h) was over 10 µM.

With `C=CC(=O)N1CCN(c2nc(=O)n3c4nc(c(F)cc24)-c2c(F)cccc2N(C(C)=O)CCCc2ccnc(C(C)C)c2-3)[C@@H](C)C1` [Example 12, (S)-4-acetyl-2^4-(4-acryloyl-2-methylpiperazin-1-yl)-2^6,3^6-difluoro-1^2-isopropyl-2^1,2^2-dihydro-4-aza-2(1,7)-pyrido[2,3-d]pyrimidina-1(3,4)-pyridina-3(1,2)-benzenacycloheptaphan-2^2-one] the IC50 ([1]; Homo sapiens, NCI-H358, 96 h) was 0.1 to 1 µM and the IC50 ([2]; Homo sapiens, LS-513, 96 h) was over 10 µM.

Compound `C=CC(=O)N1C[C@H](C)N(c2nc(=O)n3c4nc(c(F)cc24)-c2c(F)cccc2NC(=O)CCN(C)c2cccc(C(C)C)c2-3)C[C@H]1C` [Example 30, 2^4-((2S,5R)-4-acryloyl-2,5-dimethylpiperazin-1-yl)-2^6,3^6-difluoro-1^6-isopropyl-8-methyl-2^1,2^2-dihydro-4,8-diaza-2(1,7)-pyrido[2,3-d]pyrimidina-1,3(1,2)-dibenzenacyclooctaphane-2^2,5-dione] has an IC50 ([1]; Homo sapiens, NCI-H358, 96 h) of under 0.1 µM and an IC50 ([2]; Homo sapiens, LS-513, 96 h) of over 10 µM.

Compound `C=CC(=O)N1C[C@H](C)N(c2nc(=O)n3c4nc(c(F)cc24)-c2c(F)cccc2NCCCNc2cccc(C(C)C)c2-3)C[C@H]1C` (single isomer, unassigned) [Example 23A] has an IC50 ([1]; Homo sapiens, NCI-H358, 96 h) of under 0.1 µM and an IC50 [2] of over 10 µM.

`C=CC(=O)N1CCN(c2nc(=O)n3c4nc(c(F)cc24)-c2c(F)cccc2NC(=O)CCc2ccnc(C(C)C)c2-3)C[C@@H]1CC#N` [Example 3, (S)-2-(1-acryloyl-4-(2^6,3^6-difluoro-1^2-isopropyl-2^2,5-dioxo-2^1,2^2-dihydro-4-aza-2(1,7)-pyrido[2,3-d]pyrimidina-1(3,4)-pyridina-3(1,2)-benzenacycloheptaphane-2^4-yl)piperazin-2-yl)acetonitrile] was tested, and the IC50 ([1]; Homo sapiens, NCI-H358, 96 h) was 1 to 10 µM.

Work on `C=CC(=O)N1CCN(c2nc(=O)n3c4nc(c(F)cc24)-c2c(F)cccc2N(C(=O)c2cccnc2)CCCc2ccnc(C(C)C)c2-3)[C@@H](C)C1` [Example 14, (S)-2^4-(4-acryloyl-2-methylpiperazin-1-yl)-2^6,3^6-difluoro-1^2-isopropyl-4-nicotinoyl-2^1,2^2-dihydro-4-aza-2(1,7)-pyrido[2,3-d]pyrimidina-1(3,4)-pyridina-3(1,2)-benzenacycloheptaphan-2^2-one] yielded an IC50 ([1]; Homo sapiens, NCI-H358, 96 h) of 1 to 10 µM.

With `C=CC(=O)N1CCN(c2nc(=O)n3c4nc(c(F)cc24)-c2c(F)cccc2NC(=O)CCN(C)c2cccc(C(C)C)c2-3)C(C)C1` [Example 29, (S)-2^4-(4-acryloyl-2-methylpiperazin-1-yl)-2^6,3^6-difluoro-1^6-isopropyl-8-methyl-2^1,2^2-dihydro-4,8-diaza-2(1,7)-pyrido[2,3-d]pyrimidina-1,3(1,2)-dibenzenacyclooctaphane-2^2,5-dione] the IC50 [1] was under 0.1 µM and the IC50 [2] was over 10 µM.

`C=CC(=O)N1CCN(c2nc(=O)n3c4nc(c(F)cc24)-c2c(F)cccc2NC(=O)CNc2cccc(C(C)C)c2-3)[C@@H](C)C1` [Example 25, (S)-2^4-(4-acryloyl-2-methylpiperazin-1-yl)-2^6,3^6-difluoro-1^6-isopropyl-2^1,2^2-dihydro-4,7-diaza-2(1,7)-pyrido[2,3-d]pyrimidina-1,3(1,2)-dibenzenacycloheptaphane-2^2,5-dione] showed an IC50 ([1]; Homo sapiens, NCI-H358, 96 h) of under 0.1 µM and an IC50 ([2]; Homo sapiens, LS-513, 96 h) of over 10 µM.

`C=C(F)C(=O)N1C[C@H](C)N(c2nc(=O)n3c4nc(c(F)cc24)-c2c(F)cccc2NCCCc2ccnc(C(C)C)c2-3)C[C@H]1C` (single isomer, unassigned) [Example 6B] was tested, and the IC50 [1] was 0.1 to 1 µM and the IC50 ([2]; Homo sapiens, LS-513, 96 h) was over 10 µM.
